In patent publication US10202377B2, “3-(1H-benzo[D]imidazol-2-yl)-1H-pyrazolo[3,4-C]pyridine and therapeutic uses thereof” (Samumed, LLC, priority 2014, dated 2019):

Assays:
[1] = system: primary human fibroblasts derived from IPF patients (LL29 cells); test: Inhibition of fibrosis (αSMA staining) in TGF-β1-treated primary human fibroblasts from IPF patients; type: cell-based; details: Fibroblast, 96 h, TGF-β1 20 ng/mL, 4 days
Description: The above synthesized compounds were screened using primary human fibroblasts (derived from IPF patients) treated with TGF-β1 to determine their ability to inhibit the fibrotic process.
Compound Screening: Each compound was dissolved in DMSO as a 10 mM stock and used to prepare compound source plates. […] LL29 cells were plated at 1,500 cells/well in 80 μl/well F12 medium supplemented with 1% Fetal Bovine Serum. One hour after addition of the cells, TGF-β1 (Peprotech; 20 ng/mL) was added to the plates to induce fibrosis (ref. 1 and 2 above). Wells treated with TGF-β1 and containing DMSO were used as controls. Cells were incubated at 37° C. and 5% CO2 for 4 days. Following incubation for 4 days, SYTOX green nucleic acid stain (Life Technologies [Thermo Fisher Scientific]) was added to the wells at a final concentration of 1 uM and incubated at room temperature for 30 min. Cells were then fixed using 4% formaldehyde (Electron Microscopy Sciences), washed 3 times with PBS followed by blocking and permeabilization using 3% Bovine Serum Albumin (BSA; Sigma) and 0.3% Triton X-100 (Sigma) in PBS. Cells were then stained with antibody specific to α-smooth muscle actin (aSMA; Abcam) (ref. 1 and 2 above) in 3% Bovine Serum Albumin (BSA; Sigma) and 0.3% Triton X-100 (Sigma) in PBS, and incubated overnight at 4° C. […] Dead or apoptotic cells were excluded from analysis based on positive SYTOX green staining. % of total cells positive for αSMA were counted in each well and normalized to the average of 11 wells treated with TGF-β1 on the same plate using Dotmatics' Studies Software. […] The EC50 values are reported.

[2] = system: Wnt activity (Sp5-Luc reporter, SW480 colon carcinoma cells); test: Sp5-Luc Wnt reporter gene screening assay in SW480 colon carcinoma cells; details: Homo sapiens

Structure (SMILES) | EC50 [1] | IC50 [2]
CCC(=O)Nc1cncc(-c2cc3c(-c4nc5c(-c6cccc(F)c6)cccc5[nH]4)n[nH]c3cn2)c1 [Compound 1, N-(5-(3-(4-(3-Fluorophenyl)-1H-benzo[d]imidazol-2-yl)-1H-pyrazolo[3,4-c]pyridin-5-yl)pyridin-3-yl)propionamide] | 9 nM | 43.9 nM
CN(C)c1cncc(-c2cc3c(-c4nc5c(-c6cccc(F)c6)cccc5[nH]4)n[nH]c3cn2)c1 [Compound 7, 5-(3-(4-(3-Fluorophenyl)-1H-benzo[d]imidazol-2-yl)-1H-pyrazolo[3,4-c]pyridin-5-yl)-N,N-dimethylpyridin-3-amine] | 17 nM | 42.4 nM
O=C(Nc1cncc(-c2cc3c(-c4nc5c(-c6cccc(F)c6)cccc5[nH]4)n[nH]c3cn2)c1)C1CCC1 [Compound 20] | 10 nM | 74.4 nM
CCCC(=O)Nc1cncc(-c2cc3c(-c4nc5c(-c6ccncc6)cccc5[nH]4)n[nH]c3cn2)c1 [Compound 121, N-(5-(3-(4-(Pyridin-4-yl)-1H-benzo[d]imidazol-2-yl)-1H-pyrazolo[3,4-c]pyridin-5-yl)pyridin-3-yl)butyramide] |  | > 10000 nM
CC(C)C(=O)Nc1cncc(-c2cc3c(-c4nc5c(N6CCN(C)CC6)cccc5[nH]4)n[nH]c3cn2)c1 [Compound 217, N-(5-(3-(4-(4-Methylpiperazin-1-yl)-1H-benzo[d]imidazol-2-yl)-1H-pyrazolo[3,4-c]pyridin-5-yl)pyridin-3-yl)isobutyramide] |  | 355 nM
CN1CCN(c2cccc3[nH]c(-c4n[nH]c5cnc(-c6cncc(CN7CCCCC7)c6)cc45)nc23)CC1 [Compound 223, 3-(4-(4-Methylpiperazin-1-yl)-1H-benzo[d]imidazol-2-yl)-5-(5-(piperidin-1-ylmethyl)pyridin-3-yl)-1H-pyrazolo[3,4-c]pyridine] | 2610 nM | 
O=C(Nc1cncc(-c2cc3c(-c4nc5ccccc5[nH]4)n[nH]c3cn2)c1)C1CCCCC1 [Compound 256, N-(5-(3-(1H-Benzo[d]imidazol-2-yl)-1H-pyrazolo[3,4-c]pyridin-5-yl)pyridin-3-yl)cyclohexanecarboxamide] |  | 95.6 nM
O=C(Nc1cncc(-c2cc3c(-c4nc5c(-c6ccsc6)cccc5[nH]4)n[nH]c3cn2)c1)C1CCC1 [Compound 280, N-(5-(3-(4-(Thiophen-3-yl)-1H-benzo[d]imidazol-2-yl)-1H-pyrazolo[3,4-c]pyridin-5-yl)pyridin-3-yl)cyclobutanecarboxamide] |  | 6.2 nM
CCCCC(=O)Nc1cncc(-c2cc3c(-c4nc5c(-c6ccoc6)cccc5[nH]4)n[nH]c3cn2)c1 [Compound 304, N-(5-(3-(4-(Furan-3-yl)-1H-benzo[d]imidazol-2-yl)-1H-pyrazolo[3,4-c]pyridin-5-yl)pyridin-3-yl)pentanamide] |  | 145 nM
O=C(Nc1cncc(-c2cc3c(-c4nc5c(-c6ccoc6)cccc5[nH]4)n[nH]c3cn2)c1)C1CCC1 [Compound 306, N-(5-(3-(4-(Furan-3-yl)-1H-benzo[d]imidazol-2-yl)-1H-pyrazolo[3,4-c]pyridin-5-yl)pyridin-3-yl)cyclobutanecarboxamide] |  | 16.8 nM
CN(C)c1cncc(-c2cc3c(-c4nc5c(-c6cccs6)cccc5[nH]4)n[nH]c3cn2)c1 [Compound 319, N,N-Dimethyl-5-(3-(4-(thiophen-2-yl)-1H-benzo[d]imidazol-2-yl)-1H-pyrazolo[3,4-c]pyridin-5-yl)pyridin-3-amine] |  | 77.9 nM
CC(C)CC(=O)Nc1cncc(-c2cc3c(-c4nc5c(-c6ccc(F)s6)cccc5[nH]4)n[nH]c3cn2)c1 [Compound 340, N-(5-(3-(4-(5-Fluorothiophen-2-yl)-1H-benzo[d]imidazol-2-yl)-1H-pyrazolo[3,4-c]pyridin-5-yl)pyridin-3-yl)-3-methylbutanamide] |  | 17.3 nM
CC(=O)c1ccc(-c2cccc3[nH]c(-c4n[nH]c5cnc(-c6cncc(NC(=O)CC(C)(C)C)c6)cc45)nc23)s1 [Compound 406, N-(5-(3-(4-(5-Acetylthiophen-2-yl)-1H-benzo[d]imidazol-2-yl)-1H-pyrazolo[3,4-c]pyridin-5-yl)pyridin-3-yl)-3,3-dimethylbutanamide] |  | 247 nM
CS(=O)(=O)NCc1cc(F)cc(-c2cccc3[nH]c(-c4n[nH]c5cnc(-c6cncc(NC(=O)C7CCC7)c6)cc45)nc23)c1 [Compound 436, N-(5-(3-(4-(3-Fluoro-5-(methylsulfonamidomethyl)phenyl)-1H-benzo[d]imidazol-2-yl)-1H-pyrazolo[3,4-c]pyridin-5-yl)pyridin-3-yl) cyclobutanecarboxamide] |  | 25.8 nM
Fc1cccc(-c2cccc3[nH]c(-c4n[nH]c5cnc(C6=CCNCC6)cc45)nc23)c1 [Compound 938, 3-(4-(3-Fluorophenyl)-1H-benzo[d]imidazol-2-yl)-5-(1,2,3,6-tetrahydropyridin-4-yl)-1H-pyrazolo[3,4-c]pyridine] |  | 145 nM
Cn1cc(-c2cc3c(-c4nc5c(-c6cccc(F)c6)cccc5[nH]4)n[nH]c3cn2)cn1 [Compound 940, 3-(4-(3-Fluorophenyl)-1H-benzo[d]imidazol-2-yl)-5-(1-methyl-1H-pyrazol-4-yl)-1H-pyrazolo[3,4-c]pyridine] |  | 46 nM
Cc1ncc(-c2cc3c(-c4nc5c(-c6cccc(F)c6)cccc5[nH]4)n[nH]c3cn2)n1C [Compound 941, 5-(1,2-Dimethyl-1H-imidazol-5-yl)-3-(4-(3-fluorophenyl)-1H-benzo[d]imidazol-2-yl)-1H-pyrazolo[3,4-c]pyridine] |  | 334 nM
NC1CN(c2cncc(-c3cc4c(-c5nc6c(-c7cccc(F)c7)cccc6[nH]5)n[nH]c4cn3)n2)C1 [Compound 942, 1-(6-(3-(4-(3-Fluorophenyl)-1H-benzo[d]imidazol-2-yl)-1H-pyrazolo[3,4-c]pyridin-5-yl)pyrazin-2-yl)azetidin-3-amine] |  | 79 nM
Fc1cccc(-c2cccc3[nH]c(-c4n[nH]c5cnc(-c6cncc(OC7CCCCC7)c6)cc45)nc23)c1 [Compound 943, 5-(5-(Cyclohexyloxy)pyridin-3-yl)-3-(4-(3-fluorophenyl)-1H-benzo[d]imidazol-2-yl)-1H-pyrazolo[3,4-c]pyridine] |  | 560 nM
Fc1cccc(-c2cccc3[nH]c(-c4n[nH]c5cnc(-c6cncc(OC7CCNCC7)c6)cc45)nc23)c1 [Compound 944, 3-(4-(3-Fluorophenyl)-1H-benzo[d]imidazol-2-yl)-5-(5-(piperidin-4-yloxy)pyridin-3-yl)-1H-pyrazolo[3,4-c]pyridine] |  | 1200 nM
O=C(CC1CCNCC1)Nc1cncc(-c2cc3c(-c4nc5c(-c6cccc(F)c6)cccc5[nH]4)n[nH]c3cn2)c1 [Compound 945, N-(5-(3-(4-(3-Fluorophenyl)-1H-benzo[d]imidazol-2-yl)-1H-pyrazolo[3,4-c]pyridin-5-yl)pyridin-3-yl)-2-(piperidin-4-yl)acetamide] |  | > 10000 nM
Fc1cccc(-c2cccc3[nH]c(-c4n[nH]c5cnc(-c6cncc(OCCN7CCCC7)c6)cc45)nc23)c1 [Compound 946, 3-(4-(3-Fluorophenyl)-1H-benzo[d]imidazol-2-yl)-5-(5-(2-(pyrrolidin-1-yl)ethoxy)pyridin-3-yl)-1H-pyrazolo[3,4-c]pyridine] |  | 580 nM
Fc1cccc(-c2cccc3[nH]c(-c4n[nH]c5cnc(-c6cncc(OCc7ccccc7)c6)cc45)nc23)c1 [Compound 950, 5-(5-(Benzyloxy)pyridin-3-yl)-3-(4-(3-fluorophenyl)-1H-benzo[d]imidazol-2-yl)-1H-pyrazolo[3,4-c]pyridine] |  | 165 nM
O=C(CC1CCCCC1)Nc1cncc(-c2cc3c(-c4nc5c(-c6cccc(F)c6)cccc5[nH]4)n[nH]c3cn2)c1 [Compound 951, 2-Cyclohexyl-N-(5-(3-(4-(3-fluorophenyl)-1H-benzo[d]imidazol-2-yl)-1H-pyrazolo[3,4-c]pyridin-5-yl)pyridin-3-yl)acetamide] |  | 115 nM
CC(C)CC(=O)Nc1cncc(-c2cc3c(-c4nc5c(-c6cc(F)cc(OCCN(C)C)c6)cccc5[nH]4)n[nH]c3cn2)c1 [Compound 1262, N-(5-(3-(4-(3-(2-(Dimethylamino)ethoxy)-5-fluorophenyl)-1H-benzo[d]imidazol-2-yl)-1H-pyrazolo[3,4-c]pyridin-5-yl)pyridin-3-yl)-3-methylbutanamide] |  | 747 nM
CC(C)CC(=O)Nc1cncc(-c2cc3c(-c4nc5c(-c6cc(F)cc(OCCN7CCCC7)c6)cccc5[nH]4)n[nH]c3cn2)c1 [Compound 1306, N-(5-(3-(4-(3-Fluoro-5-(2-(pyrrolidin-1-yl)ethoxy)phenyl)-1H-benzo[d]imidazol-2-yl)-1H-pyrazolo[3,4-c]pyridin-5-yl)pyridin-3-yl)-3-methylbutanamide] |  | 1370 nM
CN(C)CC(=O)Nc1cncc(-c2cc3c(-c4nc5c(-c6cccc(F)c6)cccc5[nH]4)n[nH]c3cn2)c1 [Compound 1437, 2-(Dimethylamino)-N-(5-(3-(4-(3-fluorophenyl)-1H-benzo[d]imidazol-2-yl)-1H-pyrazolo[3,4-c]pyridin-5-yl)pyridin-3-yl)acetamide] |  | 155 nM
